The test system of this data set is HeLa. The experiment in a line: Cytotoxicity against human HeLa cells assessed as cell death at 1 uM after 24 hrs MTT assay relative to control. Type of data set: cell-based. (Formazan colour is commonly taken as a measure of viable cells.)

As for `O=C(/C=C/c1ccccc1)N[C@@H](c1ccccc1)[C@@H](OC(=O)c1ccccc1)C(=O)NC1CCCCC1`, the Activity is reported as under 10%.

The values above are taken from ChEMBL document CHEMBL4024730 (Bioorg Med Chem Lett, 2017).
